US20140336182A1, “Aurora Kinase Modulators and Method of Use” (Amgen Inc., priority 2013, published 2014)
Read-outs that look alike come from different tables or passages of the source.

Test system: HeLa cells
Test: HeLa cell 24 hr ploidy assay (DNA content)
Assay type: cell-based
Conditions: 4N ploidy, read-out: 24h_4NPloidy EC50_IP (uM Avg)
Summary of the method: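 DNA content measured by Hoechst 33342 nuclear staining (0.5 ug/ml, 45 min RT) and high-content imaging of fixed HeLa cells after 24 h compound exposure in 0.25% DMSO. Fractions of 4N and >4N cells fitted to dose curves giving EC50 IP, EC50 transit, Max and Min.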

[1] = Homo sapiens, HeLa, HeLa cells, average

## COc1cnc2c(Oc3ccc(Nc4nnc(-c5ccc(Cl)cc5)c5ccccc45)cn3)ccnc2c1 [compound 222, 4-(4-chlorophenyl)-N-(6-((7-(methyloxy)-1,5-naphthyridin-4-yl)oxy)-3-pyridinyl)-1-phthalazinamine]
[1]
  EC50: 0.026 µM

## c1ccc2c(-c3ccc4c(c3)OCO4)nnc(Nc3ccc(Sc4ccnc5ccncc45)cc3)c2c1 [compound 427]
[1]
  EC50: 0.002 µM

## CCc1cc(-c2cc(C)cs2)nnc1Nc1ccc(Oc2ccnc3cc(OC)cnc23)cc1 [compound 210]
[1]
  EC50: 0.056 µM

## Fc1cc(F)c2c(Sc3ccc(Nc4nnc(-c5ccccc5)c5ccccc45)cc3)ccnc2c1 [compound 295]
Homo sapiens, HeLa, HeLa cells, given as class symbol
  EC50: < 0.1 µM

## COc1cnc2c(Oc3ccc(Nc4nnc(-c5ccc6occc6c5)c5ccccc45)cc3)ccnc2c1 [compound 159]
Homo sapiens, HeLa, average
  EC50: 0.007 µM

## Cc1ccc(-c2nnc(Nc3ccc(Oc4ccnc5ccncc45)cc3)c3ccccc23)nc1 [compound 432]
[1]
  EC50: 0.109 µM

## Clc1ccc(-c2nnc(Nc3ccc(Oc4ccnc5ccsc45)cc3)c3ccccc23)cc1 [compound 250, 4-(4-chlorophenyl)-N-(4-(thieno[3,2-b]pyridin-7-yloxy)phenyl)-1-phthalazinamine]
[1]
  EC50: 0.031 µM

## COc1cnc2c(Oc3ccc(Nc4nncc5ccccc45)cc3)ccnc2c1 [compound 542, N-(4-((7-methoxy-1,5-naphthyridin-4-yl)oxy)phenyl)-1-phthalazinamine]
[1]
  EC50: 0.382 µM

## CCc1cc(-c2ccccc2)nnc1Nc1ccc(Oc2ccnc3cc(OC)cnc23)nc1 [compound 83, 4-ethyl-N-(6-((7-(methyloxy)-1,5-naphthyridin-4-yl)oxy)-3-pyridinyl)-6-phenyl-3-pyridazinamine]
Homo sapiens, HeLa, average
  EC50: 0.349 µM

## Clc1ccc(-c2nnc(Nc3ccc(Oc4ncnc5[nH]ccc45)cc3)c3ccccc23)cc1 [compound 290]
[1]
  EC50: 0.397 µM

## c1ccc(-c2nnc(Nc3ccc(Oc4ncnc5nc[nH]c45)cc3)c3ccccc23)cc1 [compound 257]
[1]
  EC50: > 1.2 µM

## COc1cnc2c(Sc3ccc(Nc4nnc(-c5ccccc5F)c5ccccc45)cc3)ccnc2c1 [compound 495]
[1]
  EC50: 0.024 µM

## COc1cnc2c(Oc3ccc(Nc4nnc(-c5ccc6c(c5)OCO6)c5ccccc45)cc3)ccnc2c1 [compound 306, 4-(1,3-benzodioxol-5-yl)-N-(4-((7-(methyloxy)-1,5-naphthyridin-4-yl)oxy)phenyl)-1-phthalazinamine]
[1]
  EC50: 0.006 µM

## COc1cc(OC)c2c(Oc3ccc(Nc4nnc(-c5ccc(Cl)cc5)c5ccccc45)cc3)ccnc2c1 [compound 435]
[1]
  EC50: 0.009 µM

## COCCOc1ccc2nccc(Sc3ccc(Nc4nnc(-c5ccc(Cl)cc5)c5ccccc45)cc3)c2c1 [compound 434]
[1]
  EC50: 0.027 µM

## COc1cnc2c(Oc3ccc(Nc4nnc(-c5ccc6sccc6c5)c5ccccc45)cc3)ccnc2c1 [compound 142]
Homo sapiens, HeLa, average
  EC50: 0.007 µM

## COc1cnc2c(Oc3ccc(Nc4ncc(-c5ccccc5)c5ccccc45)cc3)ccnc2c1 [compound 144]
Homo sapiens, HeLa, average
  EC50: 0.155 µM

## COc1cnc2c(Oc3ccc(Nc4nnc(-c5ccc(S(C)(=O)=O)cc5)c5ccccc45)cc3)ccnc2c1 [compound 263]
[1]
  EC50: 0.138 µM

## COc1cnc2c(Sc3ccc(Nc4nnc(-c5ccc6cn[nH]c6c5)c5ccccc45)cc3)ccnc2c1 [compound 453]
[1]
  EC50: < 0.0023 µM

## Oc1cc(-c2nnc(Nc3ccc(Sc4ccnc5cccnc45)cc3)c3ccccc23)ccc1Cl [compound 452]
[1]
  EC50: < 0.0023 µM

## COc1cnc2c(Oc3ccc(Nc4nnc(-c5ccccc5)c5ccccc45)cn3)ccnc2c1 [Example 41, N-(6-(7-methoxy-1,5-naphthyridin-4-yloxy)pyridin-3-yl)-4-phenylphthalazin-1-amine]
[1]
  EC50: 0.195 µM

## COc1cnc2c(Sc3ccc(Nc4nnc(N5CCC[C@@H](OC)C5)c5ccccc45)cc3)ccnc2c1 [compound 532]
[1]
  EC50: 0.02 µM

## Cc1ccc(-c2nnc(Nc3ccc(Oc4ccnc5cccnc45)cc3)c3ccccc23)cc1N [compound 416]
[1]
  EC50: 0.008 µM

## CCc1cc(-c2ccccc2)nnc1Nc1ccc(Oc2ccnc3cc(C(N)=O)ccc23)cc1 [compound 49, 4-((4-((4-ethyl-6-phenyl-3-pyridazinyl)amino)phenyl)oxy)-7-quinolinecarboxamide]
Homo sapiens, HeLa, average
  EC50: 0.028 µM

## COc1cc(OC)c2c(Sc3ccc(Nc4nnc(-c5cc(C)cs5)c5ccccc45)cc3)ccnc2c1 [compound 439]
[1]
  EC50: 0.113 µM

## COc1cnc2c(Oc3ccc(Nc4nnc(-c5ccc(Cl)nc5)c5ccccc45)cc3)ccnc2c1 [compound 235, 4-(6-chloro-3-pyridinyl)-N-(4-((7-(methyloxy)-1,5-naphthyridin-4-yl)oxy)phenyl)-1-phthalazinamine]
[1]
  EC50: 0.058 µM

## COc1ccc(F)cc1-c1nnc(Nc2ccc(Oc3ccnc4cc(C(N)=O)ccc34)cc2)c2ccccc12 [Example 47, 4-(4-(4-(5-fluoro-2-methoxyphenyl)phthalazin-1-ylamino)phenoxy)quinoline-7-carb oxamide]
Homo sapiens, HeLa, average
  EC50: > 1.2 µM

## COc1cnc2c(Oc3ccc(Nc4nnc(-c5ccc(F)c(OC)c5)c5ccccc45)cc3)ccnc2c1 [compound 180]
[1]
  EC50: 0.025 µM

## COc1cnc2c(Sc3ccc(Nc4nnc(-c5ccc(Cl)cc5)c5ccccc45)cc3)ccnc2c1 [compound 232]
[1]
  EC50: 0.004 µM

## COc1cccc(-c2nnc(Nc3ccc(Oc4ccnc5cc(C#N)ccc45)cc3)c3ccccc23)n1 [compound 102]
Homo sapiens, HeLa, average
  EC50: 0.028 µM

## COc1ccc2c(Oc3ccc(Nc4nnc(-c5ccccc5)c5ccccc45)cc3)c(F)cnc2c1 [compound 164]
[1]
  EC50: 0.076 µM

## COc1cnc2c(Oc3ccc(Nc4nnc(-c5ccc(Cl)cc5)c5ccccc45)cc3OC)ccnc2c1 [compound 566]
[1]
  EC50: 0.191 µM

## c1ccc(-c2nnc(Nc3ccc(Sc4ccnc5c4CCCN5)cc3)c3ccccc23)cc1 [compound 577]
[1]
  EC50: 0.025 µM

## c1ccc(-c2nnc(Nc3ccc(Sc4ccnc5ccncc45)cc3)c3ccccc23)cc1 [compound 425]
[1]
  EC50: 0.024 µM

## COc1cnc2c(Oc3ccc(Nc4nnc(-c5ccc6c(ccn6C)c5)c5ccccc45)cc3)ccnc2c1 [compound 204, 4-(1-methyl-1H-indol-5-yl)-N-(4-((7-(methyloxy)-1,5-naphthyridin-4-yl)oxy)phenyl)-1-phthalazinamine]
[1]
  EC50: 0.021 µM

## COc1ccc2c(Oc3ccc(Nc4nnc(-c5cccc(OC)n5)c5ccccc45)cc3)ccnc2c1 [compound 100]
Homo sapiens, HeLa, average
  EC50: 0.02 µM

## Cc1ccc(-c2nnc(Nc3ccc(Sc4ccnc5cccnc45)cc3)c3ccccc23)cn1 [compound 553]
[1]
  EC50: 0.001 µM

## COc1ccc2c(Oc3ccc(Nc4nnc(-c5ccccc5)c5c4CCC5)cc3)ccnc2c1 [compound 368]
[1]
  EC50: 0.021 µM

## CCc1cc(-c2ccc(C)s2)nnc1Nc1ccc(Oc2ccnc3cc(OC)cnc23)cc1 [compound 205, 4-ethyl-N-(4-((7-(methyloxy)-1,5-naphthyridin-4-yl)oxy)phenyl)-6-(5-methyl-2-thienyl)-3-pyridazinamine]
[1]
  EC50: 0.074 µM

## COc1ccc2nccc(Sc3ccc(Nc4nnc(-c5cc(C)cs5)c5ccccc45)cc3)c2n1 [compound 549]
[1]
  EC50: 0.009 µM

## COc1cnc2c(Oc3ccc(Nc4nnc(-c5ccccc5)c(C)c4C)cc3)ccnc2c1 [compound 281]
[1]
  EC50: 0.378 µM

## N#Cc1cc2nccc(Sc3ccc(Nc4nnc(-c5ccccc5)c5ccccc45)cc3)c2s1 [compound 458]
[1]
  EC50: 0.148 µM

## C[Si](C)(C)c1cc2nccc(Sc3ccc(Nc4nnc(Cl)c5ccccc45)cc3)c2o1 [compound 484]
[1]
  EC50: > 1.2 µM

## COc1cnc2c(Oc3ccc(Nc4nnc(-c5cnc6ccccc6c5)c5ccccc45)cc3)ccnc2c1 [compound 182]
[1]
  EC50: 0.032 µM

## Cc1csc(-c2nnc(Nc3ccc(Sc4ccnc5cc[nH]c45)cc3)c3ccccc23)c1 [compound 464]
[1]
  EC50: 0.001 µM

## c1ccc2c(-c3ccc4c(c3)CCO4)nnc(Nc3ccc(Oc4ccnc5ccsc45)cc3)c2c1 [compound 272]
[1]
  EC50: 0.006 µM

## c1ccc2c(-c3ccc4c(c3)OCO4)nnc(Nc3ccc(Sc4ccnc5ccoc45)cc3)c2c1 [compound 467]
[1]
  EC50: 0.016 µM

## Cc1ccc(-c2nnc(Nc3ccc(Sc4ccnc5ccncc45)cc3)c3ccccc23)nc1 [compound 433]
[1]
  EC50: 0.017 µM

## COc1cnc2c(Sc3ccc(Nc4nnc(-c5ccn(C)c(=O)c5)c5ccccc45)cc3)ccnc2c1 [Example 396, 4-(4-(4-(7-Methoxy-1,5-naphthyridin-4-ylthio)phenylamino)phthalazin-1-yl)-1-methylpyridin-2(1 H)-one]
[1]
  EC50: 0.008 µM

## COc1cc2nccc(Sc3ccc(Nc4nnc(-c5ccccc5)c5ccccc45)cc3)c2cc1OC [compound 104]
Homo sapiens, HeLa, average
  EC50: 0.02 µM

## COc1cnc2c(Sc3ccc(Nc4nnc(C(C)C)c5ccccc45)cc3)ccnc2c1 [compound 558]
[1]
  EC50: 0.1 µM

## COc1cnc2c(Sc3ccc(Nc4nnc(-c5cccc(Cl)c5)c5ccccc45)cc3)ccnc2c1 [compound 516]
[1]
  EC50: 0.025 µM

## Cc1csc(-c2nnc(Nc3ccc(Oc4ncnc5ccccc45)cc3)c3ccccc23)c1 [compound 568]
[1]
  EC50: 0.034 µM

## Clc1ccc(-c2nnc(Nc3ccc(Sc4ccnc5cccnc45)cc3)c3ccccc23)cc1 [Example 33, N-(4-(1,5-naphthyridin-4-ylthio)phenyl)-4-(4-chlorophenyl)phthalazin-1-amine]
HeLa cells, average
  EC50: 0.002 µM

## COc1cnc2c(Oc3ccc(Nc4nnc(-c5cccc(OC)n5)c5ccccc45)cc3)ccnc2c1 [compound 99]
Homo sapiens, HeLa, average
  EC50: 0.023 µM

## COc1cnc2c(Oc3ccc(Nc4nnc(N5CCN(C)CC5)c5ccccc45)cc3)ccnc2c1 [compound 85]
Homo sapiens, HeLa, average
  EC50: 0.085 µM

## COCCOc1ccc2c(Sc3ccc(Nc4nnc(-c5ccc(Cl)cc5)c5ccccc45)cc3)ccnc2c1 [compound 431]
[1]
  EC50: 0.01 µM

## CN(c1ccc(Oc2ccnc3ccc(=O)[nH]c23)cc1)c1nnc(-c2ccc(Cl)cc2)c2ccccc12 [compound 500]
[1]
  EC50: > 1.2 µM

## O=C(c1cc2nccc(Oc3ccc(Nc4nnc(-c5ccc(Cl)cc5)c5ccccc45)cc3)c2s1)N1CCOCC1 [compound 259]
[1]
  EC50: 0.051 µM
